Data: patent publication US20260284041A1, “PREVENTIVE OR THERAPEUTIC AGENT FOR NEURODEGENERATIVE DISEASE” (MEDILABO RFP, INC., priority 2023, published 2026)
Converted amounts (≈) assume the structure as drawn.

Legend:
C9orf72 HRE-derived RNAs = details: in vitro; cited from earlier work
FTD/ALS model mice [1] = test: Immunohistochemical analysis of brain sections (Test Example 2); type: in vivo, mouse; details: single agents 0.04 mg/day, combination 0.02+0.02 mg/day, nasal 1 month
Procedure: (§1) Age-matched non-Tg […] mates received only CMC.
After the behavioral test, each group was divided into two groups: one for immunohistochemical analysis and the other for future biochemical analysis. Immunohistochemical staining was performed as described above. For staining of double-stranded RNA-dependent protein kinase (PKR), phosphorylated TDP-43, synaptophysin, sections were boiled in 10 mM citrate buffer solution (pH6) for 30 min to expose the antigens. The sections were blocked overnight with 10% calf serum, and then the resultant sections were stained with antibodies for DNA/RNA G-quadruplex (BG4; Absolute antibody, Cleveland, UK), phospho-PKR (Thr446) (MilliporeSigma, Burlington, MA, USA), poly-GA, poly-GP (Cosmo Bio Co., Ltd., Tokyo, Japan), pSer409/410-TDP-43 (Cosmo Bio Co., Ltd.), and synaptophysin (SVP-38; Sigma-Aldrich, St. Luis, MO, USA). Only synaptophysin was stained with a biotin-labeled secondary antibody (Vector Laboratories, Burlingame, CA, USA), a horseradish peroxidase (HRP)-labeled avidin-biotin complex (Vector Laboratories), HRP substrate, diaminobenzidine (DAB), or an FITC-labeled secondary antibody (The Jackson Laboratory). […] Neuropathologies were evaluated by measuring the staining intensity or area or by counting positive puncta or cells in a constant area in each photograph using NIH ImageJ software.

FTD/ALS model mice [2] = test: Morris water maze test after nasal rifampicin and/or resveratrol (Test Example 2); type: in vivo, mouse; details: 1 month, 7- to 8-month-old mice, single agents 0.04 mg/day, combination 0.02 mg + 0.02 mg/day, FIG. 10
Excerpt: FVB/NJ-Tg(C9orf72)500Lpwr/J mice (FTD/ALS model mice) were purchased from The Jackson Laboratory (Bar Harbor, ME, USA). The mouse strain was generated as a model for the C9orf72-associated FTD/ALS expressing the human C9orf72 gene with about 500 hexanucleotide (GGGGCC) repeats using a bacterial artificial chromosome (BAC) vector. Transgenic (Tg) mice were crossed with wild-type FVB/NJcl mice, and the transgene was maintained as a heterozygote at our animal facility.
as §1
After administration for one month, the cognitive function of the mice was assessed in the Morris water maze test as described above.

BDNF = details: stated in discussion, no method given; cited from earlier work
[3] = cited from earlier work
[4] = test system: FTD/ALS model mice (C9-500 mice); test: Morris water maze test after nasal rifampicin (Test Example 1); type: in vivo, mouse; details: nasal 0.1 mg/day for 1 month; Tg mice 4.5 to 5 months old at start; vs CMC-treated Tg (p=0.0271, FIG. 4)
Excerpt: FVB/NJ-Tg(C9orf72)500Lpwr/J mice were purchased from The Jackson Laboratory (Bar Harbor, ME, USA). The mouse strain was generated as a model for the C9orf72-linked FTD/ALS expressing the human C9orf72 gene with 500 hexanucleotide (GGGGCC) repeats (hereinafter, it is also described as “FTD/ALS model mice”) using a bacterial artificial chromosome (BAC) vector. Transgenic (Tg) mice were crossed with wild-type FVB/NJcl mice, and the transgene was maintained as a heterozygote at the animal facility in our company.
The cognitive function of the mice was assessed in a Morris water maze test at the age of 4.5 months, and the motor function of the mice was assessed in the rotarod and inverted screen tests at the age of 4.5 months and at the age of 12 months in an above-described manner.
(§2) 4-and-a half to 5-month-old FTD/ALS model mice were divided into two groups. […] Non-Tg littermates were treated with CMC alone. […] After the behavioral test, each group was divided into two groups: one group for immunohistochemical analysis and the other group for future biochemical analysis. For immunohistochemical analysis, brain sections were prepared as described above, while for biochemical analysis, whole brains were removed and frozen at −80° C. until use.

[5] = test system: FTD/ALS model mice (C9-500 mice); test: Double staining for RNA foci and cytoplasmic inclusions (Test Example 1); type: in vivo, mouse; details: PFC and MC; nasal 0.1 mg/day for 1 month; FIG. 6
Excerpt: To examine the formation of nuclear and cytoplasmic inclusions, the sections were double stained with antibodies to G-quadruplex and hnRNP H1 (Proteintech, Rosemont, IL, USA) without pretreatment for RNA foci, and pSer409/410-TDP-43 and amyloidogenic protein oligomers (F11G3; Sigma-Aldrich) after pretreatment at pH6 for TDP-43 oligomer inclusions. For DPR inclusions, the sections were double-stained with antibodies to poly-GA, poly-GP, poly-GR, and SQSTM1/p62 (A-6; Santa Cruz Biotechnology, Dallas, TX, USA) without pretreatment. After staining, FITC- and rhodamine-labeled secondary antibodies (Jackson Laboratory) were used. The specimens were then treated with TrueBlack Plus Lipofuscin (Biotium, Fremont, CA, USA) to quench the autofluorescence and mounted using a Vectashield vibrance antifade mounting medium with DAPI (Vector Laboratories). Images of the stained sections were taken with a BZ-X800 fluorescence microscope, and cells having inclusion bodies were counted in a certain area.
as §2

[6] = test system: (GGGGCC)4 oligonucleotides; test: Gel shift assay for G-quadruplex; type: biochemical; details: 1 mM rifampicin, 5 μM DNA, 100 mM KCl; FIG. 8A
Procedure: The gel shift assay to detect G-quadruplex formation was performed. Sense (GGGGCC)4, antisense (GGCCCC)4, and Control (ATGC)6 oligonucleotides were synthesized and solubilized to 100 μM in 0.89 M of Tris-borate buffer, pH8.3 containing 0.02 M of EDTA (TBE). […] The mixtures were incubated at 98° C. for 3 min and slowly cooled to room temperature. The samples were mixed with Blue/Orange Loading Dye (Promega Corporation, Madison, WI, USA) and subjected to native PAGE with 20% polyacrylamide gel (Novex TBE Gels, Invitrogen, Carlsbad, CA, USA) and TBE running buffer containing 50 mM KCl. The gels were stained with SYBR Gold nucleic acid gel stain (Invitrogen) for 10 min, and images were acquired using an ImageQuant LAS 500 image analyzer (GE Healthcare, Hino, Japan).

phospho-PKR (Thr446) = test: Immunohistochemical studies of phosphorylated PKR (Test Example 1); type: in vivo, mouse; details: PFC and MC; nasal 0.1 mg/day for 1 month; FIG. 8B
Procedure: as §2

PKR = details: reported in NPL 31; cited from earlier work

COc1cccc2c1C(=O)c1c(O)c3c(c(O)c1C2=O)C[C@@](O)(C(=O)CO)C[C@@H]3O[C@H]1C[C@H](N)[C@H](O)[C@H](C)O1 [doxorubicin]
RNA gelation and RNA foci formation (C9orf72 HRE-derived RNAs): inhibited

Oc1ccc(/C=C/c2cc(O)cc(O)c2)cc1 [resveratrol, 3,5,4′-trihydroxy-trans-stilbene]
synaptophysin levels (synaptic loss) (FTD/ALS model mice [1]; hippocampus CA2-3 region and dentate gyrus (DG), FIG. 11): significantly restored | levels of G-quadruplex (FTD/ALS model mice [1]; prefrontal cortex, FIG. 12): significantly reduced | levels of phosphorylated PKR (FTD/ALS model mice [1]; prefrontal cortex, FIG. 13): significantly reduced | levels of poly-GA and poly-GP (FTD/ALS model mice [1]; prefrontal cortex, FIG. 14): significantly reduced | levels of phosphorylated TDP-43 (FTD/ALS model mice [1]; prefrontal cortex, FIG. 15): significantly reduced | cognitive function, Morris water maze (FTD/ALS model mice [2]): significantly improved | expression of BDNF in the mouse brains (BDNF): elicited | solubility in water [3]: 0.03 mg/mL (≈ 131 µM)

CC(=O)O.N [ammonium acetate]
RNA gelation and RNA foci formation (C9orf72 HRE-derived RNAs): inhibited

CO[C@H]1/C=C/O[C@@]2(C)Oc3c(C)c(O)c4c(O)c(c(/C=N/N5CCN(C)CC5)c(O)c4c3C2=O)NC(=O)/C(C)=C\C=C\[C@H](C)[C@H](O)[C@@H](C)[C@@H](O)[C@@H](C)[C@H](OC(C)=O)[C@@H]1C [rifampicin, 3-(4-Methylpiperazinyliminomethyl)rifamycin SV]
memory performance (cognitive function), water maze test [4]: significantly improved | DPR cytoplasmic inclusions (DPRs and p62 double positive) [5]: significantly attenuated | TDP-43 oligomer cytoplasmic inclusions (pTDP-43 and F11G3 double positive) [5]: significantly attenuated | formation of RNA foci (G-quadruplex and hnRNP H double positive) [5]: significantly attenuated | inhibition of G-quadruplex formation [6]: failed to inhibit | cognitive function, Morris water maze (FTD/ALS model mice [2]): improved the cognitive function in the mice, but the effect was incomplete and not significant | levels of phosphorylated PKR (phospho-PKR (Thr446)): significantly attenuated

CN(C)C(=N)N=C(N)N [metformin]
RAN translation / PKR phosphorylation and phenotype of C9-500 mice (PKR): suppress RAN translation by suppressing PKR phosphorylation
